Reference: patent US5972890A, “Synthetic peptides for arterial imaging” (New England Deaconess Hospital Corporation, priority 1995, dated 1999)
Ends that are not written are not given here.

Legend:
[1] = Plasma decay of 125I-labelled synthetic peptide after ear vein injection; type: in vivo, rabbit; conditions: for additional fall of plasma level over the next three hours: from one hour to four hours after injection
Description: Each labelled synthetic peptide preparation (containing, for example, 150 to 400 or more μCi of ^125 I-labelled peptide) in column elution buffer was injected into the marginal ear vein of the ballooned and healing New Zealand white rabbits or WHHL rabbits. Serial blood samples were obtained from the opposite ear during the ensuing 0-24 hours and were analyzed for radioactivity. The labelled peptide concentrations in the blood samples that were withdrawn over the first 10 minutes after injection were extrapolated to zero time to determine the time zero radioactivity in the calculation of average plasma radioactivity. […] Peptides SP15a, SP17, SP19a, SP21a, SP28, SP34a, and SP30 were cleared rapidly from the plasma with half-lives of about one minute or less; after one hour, the plasma levels were less than 10% of the injected dose and fell by an additional 1% over the next three hours. Peptides SP15a, SP17, SP21a, SP28, SP34a, and SP30 leveled off to a plasma level of 3-6%; peptide SP19a cleared more quickly and leveled off to a concentration of 0.3% (at four hours).

[2] = test system: anti-SP-4 antiserum; assay: ELISA immunological cross-reactivity with anti-SP-4 antiserum; type: binding; conditions: ELISA plates coated with peptide or LDL, rabbit polyclonal anti-SP-4 antiserum
Description: To produce anti-synthetic peptide antisera, purified synthetic peptide was dissolved in PBS, pH 7.4 at a concentration of 1 mg/ml. The peptide solution was mixed with an equal volume of complete Freund's adjuvant and vortexed thoroughly until a thick emulsion was produced. New Zealand White rabbits (Millbrook Farms, Amherst, Mass.) were injected with a total of 0.5 mg synthetic peptide administered subcutaneously in the four dorsal quadrants. The rabbits were given a boost (injected at the same sites) with 0.5 mg peptide emulsified in incomplete Freund's adjuvant 2-3 weeks later. Eight to ten days after the first boost, the animals were given a second, identical boost and were bled of 30 ml 8 to 10 days later.
To test for immunological cross-reactivity microtiter plates (Immulon II Dynatech Labs, Chantilly, Va.) were coated with the purified synthetic peptide or LDL by an overnight incubation at 4° C. with 100 ng peptide per well in 50 mM carbonate, pH 9.6, and blocked for nonspecific binding with an additional overnight incubation with phosphate-buffered saline, pH 7.4 (PBS), 1% bovine serum albumin (BSA). Control wells were coated with BSA alone. After washing twice with PBS, the wells were filled with serial dilutions (1:10 to 1:100,000 made in PBS, 3% BSA) of a rabbit polyclonal antibody generated against the synthetic peptide(s) and incubated for 45 minutes at room temperature. Following thorough washing (3× with PBS, 0.1% BSA), the wells were filled with a 1:2000 dilution of goat anti-rabbit IgG-horseradish peroxidase conjugate (Atlantic Antibodies, Scarborough, Me.). After a final wash, the wells were filled with 3,3'-5,5'-tetramethybenzidine (TMB) microwell peroxidase substrate (Kirkegaard and Perry Labs, Gaithersburg, Md.) and read at 650 nm every two minutes on an ELISA-5 automated plate reader (Physica, New York, N.Y.). Results (see, e.g., FIGS. 4 and 5) are expressed as the initial velocity of substrate conversion (change in OD650 /hr), which is determined by a linear regression of 15 data points per well. Each data point represents the average of three measured data points from the same plate, run at the same time.

Row | Substance | additional fall of plasma level over the next three hours [1] | binding of anti-SP-4 antiserum to coated peptide or LDL [2] | plasma concentration at which peptide leveled off ([1]; at four hours)
1 | Ac-YAKFRETLEDTRDRMY-NH2 [SP-15a, CH3 CONH-Tyr-Ala-Lys-Phe-Arg-Glu-Thr-Leu-Glu-Asp-Thr-Arg-Asp-Arg-Met-Tyr-CONH2] | 1% | – | –
2 | Ac-YKLALEAARLLADAEGAK-NH2 [SP-6A, CH3 CONH-Tyr-Lys-Leu-Ala-Leu-Glu-Ala-Ala-Arg-Leu-Leu-Ala-Asp-Ala-Glu-Gly-Ala-Lys-CONH2] | – | bind | –
3 | Ac-YKLALEAARLLANAEGAK-NH2 [SP-8A, CH3 CONH-Tyr-Lys-Leu-Ala-Leu-Glu-Ala-Ala-Arg-Leu-Leu-Ala-Asn-Ala-Glu-Gly-Ala-Lys-CONH2] | – | bind | –
4 | Ac-YRALVDTEFKVKQEAGAK-NH2 [SP-21a, CH3 CONH-Tyr-Arg-Ala-Leu-Val-Asp-Thr-Glu-Phe-Lys-Val-Lys-Gln-Glu-Ala-Gly-Ala-Lys-CONH2] | 1% | – | –
5 | Ac-YRALVDTLK-NH2 [SP-14A, CH3 CONH-Tyr-Arg-Ala-Leu-Val-Asp-Thr-Leu-Lys-CONH2] | – | bind | –
6 | Ac-YRALVDTLKFVTEQAKGA-NH2 [SP-19a, CH3 CONH-Tyr-Arg-Ala-Leu-Val-Asp-Thr-Leu-Lys-Phe-Val-Thr-Glu-Gln-Ala-Lys-Gly-Ala-CONH2] | 1% | – | 0.3%
7 | Ac-YRALVDTLKFVTQAEGAK-NH2 [SP-4A, CH3 CONH-Tyr-Arg-Ala-Leu-Val-Asp-Thr-Leu-Lys-Phe-Val-Thr-Gln-Ala-Glu-Gly-Ala-Lys-CONH2] | – | bind | –
8 | Ac-YRALVDYLKFVTQL-NH2 [SP-12A, CH3 CONH-Tyr-Arg-Ala-Leu-Val-Asp-Tyr-Leu-Lys-Phe-Val-Thr-Gln-Leu-CONH2] | – | bind | –
9 | Ac-YVLDEFREKLNEELEALKQK-NH2 [SP-34a] | 1% | – | –
10 | YAALDLNAVANKIADFEL-NH2 [SP-17, H2 N-Tyr-Ala-Ala-Leu-Asp-Leu-Asn-Ala-Val-Ala-Asn-Lys-Ile-Ala-Asp-Phe-Glu-Leu- CONH2] | 1% | – | –
11 | YKLALEAARLLADAEGAK-NH2 [SP-6, H2 N-Tyr-Lys-Leu-Ala-Leu-Glu-Ala-Ala-Arg-Leu-Leu-Ala-Asp-Ala-Glu-Gly-Ala-Lys- CONH2] | – | bind | –
12 | YKLALEAARLLANAEGAK-NH2 [SP-8, H2 N-Tyr-Lys-Leu-Ala-Leu-Glu-Ala-Ala-Arg-Leu-Leu-Ala-Asn-Ala-Glu-Gly-Ala-Lys- CONH2] | – | bind | –
13 | YRALVDTLKFVTQAEGAK-NH2 [SP-4, NH2 -Tyr-Arg-Ala-Leu-Val-Asp-Thr-Leu-Lys-Phe-Val-Thr-Gln-Ala-Glu-Gly-Ala-Lys-CONH2] | – | bind | –
14 | YVGVAPGVGVAPGVGVAPG [SP-28, H2 N-Tyr-Val-Gly-Val-Ala-Pro-Gly-Val-Gly-Val-Ala-Pro-Gly-Val-Gly-Val-Ala-Pro- Gly-OH] | 1% | – | –
15 | YVPGVGVPGVGVPGVGVPGVG-NH2 [SP-30, H2 N-Tyr-Val-Pro-Gly-Val-Gly-Val-Pro-Gly-Val-Gly-Val-Pro-Gly-Val-Gly-Val-Pro- Gly-Val-Gly-CONH2] | 1% | – | –
